From PubChem BioAssay (NCI)
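1) Cells in 96-well plates. 2) Compound, 48 h, 5 concentrations. 3) Linear interpolation between surrounding doses. 4) Unreached endpoint = highest concentration. The concentration for 50% growth inhibition is given as GI50. TGI marks complete inhibition of growth.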

What was measured:
Assay in all cases: NCI-60 cell line screen, 48 h
BT-549 breast = system: BT-549 breast
HT29 colon = system: HT29 colon
MCF7 breast = system: MCF7 breast
SK-MEL-2 melanoma = system: SK-MEL-2 melanoma
SNB-75 CNS = system: SNB-75 CNS
SW-620 colon = system: SW-620 colon
MALME-3M melanoma = system: MALME-3M melanoma
MOLT-4 leukemia = system: MOLT-4 leukemia
SN12C renal = system: SN12C renal
SNB-19 CNS = system: SNB-19 CNS

| SMILES | GI50 (BT-549 breast) | TGI (BT-549 breast) | GI50 (HT29 colon) | TGI (HT29 colon) | GI50 (MCF7 breast) | TGI (MCF7 breast) | GI50 (SK-MEL-2 melanoma) | TGI (SK-MEL-2 melanoma) | GI50 (SNB-75 CNS) | TGI (SNB-75 CNS) | GI50 (SW-620 colon) | TGI (SW-620 colon) | TGI (MALME-3M melanoma) | TGI (MOLT-4 leukemia) | TGI (SN12C renal) | TGI (SNB-19 CNS) | GI50 (MALME-3M melanoma) | GI50 (SN12C renal) | GI50 (SNB-19 CNS) | GI50 (MOLT-4 leukemia) |
| --- | --- | --- | --- | --- | --- | --- | --- | --- | --- | --- | --- | --- | --- | --- | --- | --- | --- | --- | --- | --- |
| CCOC(=O)C1=CSC2=NC3=C(CCC/C3=C\c3cc(OC)c(OC)c(OC)c3)C(c3cc(OC)c(OC)c(OC)c3)N12 (stereo unspecified) | 2.64 µM | > 100 µM | 1.34 µM | > 100 µM | 2.66 µM | > 100 µM | > 100 µM | > 100 µM | 3.74 µM | > 100 µM | 1.54 µM | > 100 µM | – | – | – | – | – | – | – | – |
| CC(=O)c1c(O)c2c([nH]c1=O)CCCC2 | – | – | – | > 100 µM | – | – | – | – | – | 29 µM | – | > 100 µM | > 100 µM | > 100 µM | 45.1 µM | 33.9 µM | – | – | – | – |
| C=C(C)[C@@H]1CC[C@]2(C(=O)n3ccnc3)CC[C@]3(C)[C@H](CC[C@@H]4[C@@]5(C)CCCNC(C)(C)[C@@H]5CC[C@]43C)[C@@H]12 | – | – | 0.785 µM | 2.17 µM | 1.5 µM | 3.23 µM | – | – | 2.48 µM | 10.1 µM | 1.68 µM | 3.39 µM | 2.86 µM | – | 3.24 µM | 6.12 µM | 1.31 µM | 1.7 µM | 2.54 µM | – |
| O=C(CCC(=O)C1Cc2ccccc2C1=O)Nc1cccc(C(F)(F)F)c1 (stereo unspecified) | – | – | – | > 100 µM | – | – | – | > 100 µM | – | – | – | > 100 µM | > 100 µM | > 100 µM | > 100 µM | > 100 µM | – | – | – | – |
| O=c1c2cccc3cccc(c4n1CCCN=4)c32 | – | – | – | > 100 µM | – | – | – | > 100 µM | – | > 100 µM | – | > 100 µM | > 100 µM | > 100 µM | > 100 µM | – | – | – | – | – |
| O=C1c2ccoc2C(=O)c2oc(=O)ccc21 | – | – | – | > 78.8 µM | – | – | – | 22 µM | – | 15.6 µM | – | 11.5 µM | 7.84 µM | – | 24.2 µM | 31 µM | – | – | – | – |
| CC(C)(C)c1cc(C(OCCl)(C(F)(F)F)C(F)(F)F)c2c(c1)C(C(F)(F)F)(C(F)(F)F)OC21c2ccccc2C(=O)c2ccccc21 | – | – | – | > 100 µM | – | – | – | > 100 µM | – | > 100 µM | – | > 100 µM | > 100 µM | > 100 µM | > 100 µM | > 100 µM | – | – | – | – |
| C/C(CC(=O)Nc1cccc(Cl)c1C)=N\N=C(N)N | – | – | – | > 100 µM | – | – | – | > 100 µM | – | > 100 µM | – | – | > 100 µM | > 100 µM | > 100 µM | > 100 µM | – | – | – | – |
| O=C(Nc1ccc(Cl)c(Cl)c1)C1C(=O)N(c2ccc(Cl)c(Cl)c2)C(=O)/C1=N\O (stereo unspecified) | – | – | – | > 100 µM | – | – | – | > 100 µM | – | > 100 µM | – | > 100 µM | > 100 µM | > 100 µM | > 100 µM | > 100 µM | – | – | – | – |
| COC(=O)c1cc2ccccc2c2nc3ccccc3c(Cl)c12 | – | – | – | > 100 µM | – | – | – | > 100 µM | – | > 100 µM | – | > 100 µM | > 100 µM | > 100 µM | > 100 µM | > 100 µM | – | – | – | – |
| CN1CCOCCOCCOc2ccccc2NC(=O)c2nc(cnc2N)-c2ccc(cc2)S1(=O)=O | 7.77 µM | > 100 µM | – | – | 0.0397 µM | > 100 µM | – | – | 2.85 µM | 17.7 µM | – | – | > 100 µM | – | > 100 µM | > 100 µM | > 100 µM | > 100 µM | 16.6 µM | – |
| CCC1=C(c2ccc(OC)cc2)CC[C@]2(CCNC2=O)[C@@H]1C | – | – | – | 59.6 µM | – | 46.7 µM | – | 52.4 µM | – | > 95.6 µM | – | > 100 µM | 67.4 µM | 39.7 µM | > 96.3 µM | > 100 µM | – | – | – | – |
| NNC(=O)N/N=C1\CNC(=O)C(=O)C1c1nc2ccccc2s1 (stereo unspecified) | – | – | – | > 100 µM | – | – | – | > 100 µM | – | > 100 µM | – | > 100 µM | > 100 µM | – | > 100 µM | > 100 µM | – | – | – | – |
| Nc1c(C(=O)Nc2ccccc2O)[n+]([O-])c2ccccc2[n+]1[O-] | – | – | – | > 100 µM | – | – | – | > 100 µM | – | > 100 µM | – | 48.6 µM | > 100 µM | > 100 µM | > 100 µM | > 100 µM | – | – | – | – |
| COc1ncc2cc1NS(=O)(=O)c1cccc(c1)C(=O)NCC1=CC=C(S1)c1ncnc3c1SC2=C3C | 0.0855 µM | 0.505 µM | 0.201 µM | 1.74 µM | 0.104 µM | 1.62 µM | 0.225 µM | 1.15 µM | 0.0176 µM | 2.26 µM | 0.49 µM | 3.31 µM | 3.09 µM | – | 18.3 µM | – | 0.302 µM | 0.395 µM | – | – |
| COc1ccc2c3c(c(C(=O)O)oc13)C(CCC(=O)O)CC2 (stereo unspecified) | – | – | – | > 100 µM | – | – | – | – | – | > 100 µM | – | > 100 µM | – | – | > 100 µM | > 100 µM | – | – | – | – |
| Nc1c(-c2nc3ccccc3s2)[n+]([O-])c2ccccc2[n+]1[O-] | – | – | – | > 100 µM | – | – | – | 74.9 µM | – | 76.5 µM | – | > 100 µM | 91.7 µM | > 100 µM | – | > 100 µM | – | – | – | – |
| NC(=O)C(=O)Cc1nc2ccccc2s1 | – | – | – | > 100 µM | – | – | – | > 100 µM | – | > 100 µM | – | > 100 µM | > 100 µM | > 100 µM | > 100 µM | > 100 µM | – | – | – | – |
| CN(C)CCNC(=O)c1cccc2cc3ccc4ccccc4c3nc12 | – | – | – | 0.701 µM | – | – | – | 0.406 µM | – | 0.399 µM | – | 1.19 µM | 0.76 µM | 0.0678 µM | 0.818 µM | 0.919 µM | – | – | – | – |
| c1ccc2c(c1)[O][Sn][O]2 | – | – | 95.4 µg/mL | > 150 µg/mL | – | – | 92.6 µg/mL | > 150 µg/mL | 100 µg/mL | > 150 µg/mL | 69 µg/mL | > 150 µg/mL | > 150 µg/mL | > 150 µg/mL | > 150 µg/mL | > 150 µg/mL | 90.9 µg/mL | 41.8 µg/mL | 61.5 µg/mL | 7.16 µg/mL |
| Nc1ncnc2sc(Nc3ccccc3)nc12 | – | – | – | > 100 µM | – | – | – | > 100 µM | – | > 100 µM | – | > 100 µM | > 100 µM | > 100 µM | > 100 µM | > 100 µM | – | – | – | – |
| CC1(C)OC2OC(COC(=O)C(c3ccccc3)c3ccccc3)C3OC(C)(C)OC3C2O1 (stereo unspecified) | – | – | – | > 100 µM | – | – | – | > 100 µM | – | 87.2 µM | – | > 100 µM | > 100 µM | > 100 µM | > 100 µM | > 100 µM | – | – | – | 3.76 µM |
| C1=C(c2ccccc2)C(OC2Oc3ccccc3C=C2c2ccccc2)Oc2ccccc21 (stereo unspecified) | – | – | – | > 100 µM | – | – | – | > 100 µM | – | > 100 µM | – | > 100 µM | > 100 µM | > 100 µM | > 100 µM | > 100 µM | – | – | – | – |
